Assay results: patent US4778801A, “Isoindolinone derivatives, production and use thereof” (Takeda Chemical Industries, Ltd., priority 1984, dated 1988)

Tests used:
[1] = molecular target: benzodiazepine receptors; experiment: specific binding to benzodiazepine receptors, [3H]-diazepam displacement; details: [3H]diazepam 2 nM, pH 7.4, 4° C., 20 minutes
Protocol: The compounds (I) according to the invention were tested for their affinity for benzodiazepine receptors using radioactive [^3 H]-diazepam.
The assay for specific binding to benzodiazepine receptors was performed according to the method described in the literature (Nature, 266, 732 (1977); European J. Pharmacol., 48, 263 (1978)). Thus, a crude mitochondrial fraction obtained from the cerebral cortex of SD strain male rats aged 9 to 10 weeks was suspended in 50 mM Tris-HCl buffer (pH 7.4), followed by addition of the test drug at several concentration levels and of [^3 H]diazepam (final concentration 2 nM). Each suspension was incubated at 4° C. for 20 minutes and then filtered through a Whatman GF/B glassfiber filter, and the radioactivity of [^3 H]diazepam on the filter was measured with a liquid scintillation counter. In this manner, the IC50 value, namely the concentration of the test drug at which the [^3 H]diazepam binding was inhibited by 50%, was determined.

[2] = test system: mice; experiment: sleep-inducing activity, potentiation of pentobarbital sleep; type: in vivo; details: Mus musculus, oral, 30 minutes before pentobarbital 25 mg/kg i.p.
Protocol: Mice, in groups of eight, were orally administered the test compound and, 30 minutes later, intraperitoneally administered 25 mg/kg of pentobarbital. The loss of righting reflex which lasted for 2 minutes or longer during the 30-minute period following pentobarbital administration was taken as an indication of sleep potentiation. The dose, ED50, of the test compound as required to achieve sleep potentiation in 50% of mice was calculated.

[3] = test system: male rat (SD/JCL); experiment: antianxiety activity, anticonflict test (Vogel et al.); type: in vivo; details: po; orally administered, male rat, 30, 60 or 180 minutes after administration; read-out: Antianxiety activity MED
Protocol: The antianxiety activity measurement was performed in accordance with Vogel et al. [Psychopharmacologia, 21, 1 (1970)] as follows: An apparatus comprising a large clear box with a stainless steel grid floor and a smaller opaque dark box provided with a drinking tube was arranged such that a rat placed therein could receive, on the sole, electric shocks through the grid floor following each twentieth lick. The test compound was orally administered to each male rat (SD/JCL) deprived of water for 48 hours prior to the test, which rat was then, 30, 60 or 180 minutes after administration, placed in the apparatus mentioned above and the number of licks was recorded over 3 minutes. The increase in the number of licks as compared with a physiological saline group was determined and taken as a measure of antianxiety potency, and the minimum effective dose determined accordingly.

[4] = test system: rats; experiment: muscle relaxant activity, rotating rod; type: in vivo; details: Rattus norvegicus, 1 min, 50% of rats fall off within 1 minute
Protocol: Groups of 6 rats were used. The rats were placed on a rotating rod with a diameter of 3.5 cm. The rod rotated with a speed of 8 revolutions per minute. […] The dose, ED50, of the test compound as required to make 50% of the rats fall off the rod was calculated [J. Am. Pharmaceutical Association, 46, 208 (1957)].

COc1ccc(N2C(=O)c3ccc(Cl)cc3C2CC(=O)N2CCC(=NO)CC2)cc1 (centres unmarked)
IC50 [1]: 3.47 nM

CC1(C)COC2(CCN(C(=O)CC3c4ccccc4C(=O)N3c3ccc4ccc(Cl)nc4n3)CC2)OC1 (centres unmarked)
IC50 [1]: 2.4 nM

O=C(CC1c2ccccc2C(=O)N1c1ccc2ccc(Cl)nc2n1)N1CCC(O)CC1 (centres unmarked) [drawing 34]
IC50 [1]: 0.794 nM

O=C1CCN(C(=O)CC2c3ccccc3C(=O)N2c2ccc3ccc(Cl)nc3n2)CC1 (centres unmarked) [drawing 38]
ED50 [2]: 24.3 mg/kg
minimal effective dose [3]: 20 mg/kg
ED50 [4]: > 80 mg/kg

COc1ccc(N2C(=O)c3ccc(Cl)cc3C2CC(=O)N2CCC(=O)CC2)cc1 (centres unmarked)
IC50 [1]: 2.4 nM

O=C(CC1c2ccccc2C(=O)N1c1ccc2ccc(Cl)nc2n1)N1CCC(=NO)CC1 (centres unmarked)
IC50 [1]: 0.645 nM

COC1(OC)CCN(C(=O)CC2c3ccccc3C(=O)N2c2ccc3ccc(Cl)nc3n2)CC1 (centres unmarked) [drawing 39]
ED50 [2]: ~50 mg/kg
minimal effective dose [3]: < 20 mg/kg
ED50 [4]: > 40 mg/kg

O=C(CC1c2ccccc2C(=O)N1c1ccc2ccc(Cl)nc2n1)N1CCC2(CC1)SCCS2 (centres unmarked)
IC50 [1]: 1.23 nM

O=C1CCN(C(=O)CC2c3ccccc3C(=O)N2c2ccc3ccc(Cl)nc3n2)CC1 (centres unmarked) [drawing 16]
IC50 [1]: 0.537 nM

O=C(CC1c2ccccc2C(=O)N1c1ccc2ccc(Cl)nc2n1)N1CCC2(CC1)OCCO2 (centres unmarked) [drawing 17]
IC50 [1]: 0.38 nM

COC1(OC)CCN(C(=O)CC2c3ccccc3C(=O)N2c2ccc3ccc(Cl)nc3n2)CC1 (centres unmarked) [drawing 19]
IC50 [1]: 1.29 nM

COc1ccc(N2C(=O)c3ccc([N+](=O)[O-])cc3C2CC(=O)N2CCC3(CC2)OCCO3)cc1 (centres unmarked)
IC50 [1]: 21.9 nM

O=C(CC1c2ccccc2C(=O)N1c1ccc2ccc(Cl)nc2n1)N1CCC2(CC1)OCCCO2 (centres unmarked)
IC50 [1]: 4.9 nM

O=C(CC1c2ccccc2C(=O)N1c1ccc2ccc(Cl)nc2n1)N1CCC2(CC1)OCCO2 (centres unmarked) [drawing 36]
ED50 [2]: > 50 mg/kg
minimal effective dose [3]: 5 mg/kg
ED50 [4]: > 80 mg/kg

COc1ccc(N2C(=O)c3ccc([N+](=O)[O-])cc3C2CC(=O)N2CCC(=NO)CC2)cc1 (centres unmarked)
IC50 [1]: 7.94 nM

O=C(CC1c2ccccc2C(=O)N1c1ccc2ccc(Cl)nc2n1)N1CCC2(CC1)SCCCS2 (centres unmarked)
IC50 [1]: 0.562 nM

COc1ccc(N2C(=O)c3ccc(Cl)cc3C2CC(=O)N2CCC3(CC2)OCCO3)cc1 (centres unmarked)
IC50 [1]: 8.71 nM

CCC(=O)OC1CCN(C(=O)CC2c3ccccc3C(=O)N2c2ccc3ccc(Cl)nc3n2)CC1 (centres unmarked)
IC50 [1]: 1 nM

CC(=O)OC1CCN(C(=O)CC2c3ccccc3C(=O)N2c2ccc3ccc(Cl)nc3n2)CC1 (centres unmarked)
IC50 [1]: 0.501 nM

O=C(CC1c2ccccc2C(=O)N1c1ccc2ccc(Cl)nc2n1)N1CCC(O)CC1 (centres unmarked) [drawing 41]
ED50 [2]: 40.2 mg/kg
minimal effective dose [3]: > 30 mg/kg
ED50 [4]: > 80 mg/kg

COc1ccc(N2C(=O)c3ccc([N+](=O)[O-])cc3C2CC(=O)N2CCC(=O)CC2)cc1 (centres unmarked)
IC50 [1]: 6.16 nM
